Values of other authors as cited in patent publication US12005095B2, “Eutectic extraction solvents, extraction methods by eutectigenesis using said solvents, and extracts derived from said extraction methods” (Givaudan France Naturals SAS, priority 2015, dated 2024).

Test system: cellular melanogenesis

Question: Which “effect on cellular melanogenesis, in words” value does the source give for `O=C1c2c(O)cc(O)cc2O[C@H](c2ccc(O)c(O)c2)[C@H]1O` [taxifolin] here?
Answer: The value was “inhibit cellular melanogenesis”.
